Relative viability data for eight cell lines are collected here from the supplement of paper PMC10307832.

Common to all, as to assay: relative viability (nuclei count vs DMSO), 5 days (fraction); higher = more cells survive
Compound in the assay “RO-3306 + Pictilisib”: C1=CC2=C(C=CC(=C2)C=C3C(=O)NC(=NCC4=CC=CS4)S3)N=C1 [RO-3306] + CS(=O)(=O)N1CCN(Cc2cc3nc(-c4cccc5[nH]ncc45)nc(N4CCOCC4)c3s2)CC1 [Pictilisib] (partner 1 µM)
A digest of the protocol: (§1)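 Relative viability divides the nuclei count in treated wells by that in vehicle wells. Lung cancer cell lines were seeded in 1536-well plates, dosed by pin tool the next day, and fixed and stained after 5 days in one step with final 0.05% Triton X-100, 1% formaldehyde and 1 ug/ml Hoechst. Dosing was a single drug or a fixed anchor-drug dose plus five library-drug doses (not always all listed) in √10 steps, and values are medians of duplicate plates imaged at 4×.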

Compound in the assay “RO-3306 + Linsitinib”: C1=CC2=C(C=CC(=C2)C=C3C(=O)NC(=NCC4=CC=CS4)S3)N=C1 [RO-3306] + C[C@]1(O)C[C@@H](c2nc(-c3ccc4ccc(-c5ccccc5)nc4c3)c3c(N)nccn32)C1 [Linsitinib] (partner 1 µM)
The gist of the method:
as §1

Compound in assay [1]: O=S(=O)(c1ccccc1)N(CC(F)(F)F)c1ccc(C(O)(C(F)(F)F)C(F)(F)F)cc1 + COc1cc2c(Oc3ccc(NC(=O)C4(C(=O)Nc5ccc(F)cc5)CC4)cc3F)ccnc2cc1OCCCN1CCOCC1 [Foretinib] (partner 0.25 µM)
The gist of the method: as §1

Compound in assay [2]: O=S(=O)(c1ccccc1)N(CC(F)(F)F)c1ccc(C(O)(C(F)(F)F)C(F)(F)F)cc1 + COc1cccc2cc(-c3nc([C@H]4CC[C@H](C(=O)O)CC4)n4ncnc(N)c34)[nH]c12 [OSI-027] (partner 0.5 µM)
A digest of the protocol:
as §1

Compound in assay [3]: O=S(=O)(c1ccccc1)N(CC(F)(F)F)c1ccc(C(O)(C(F)(F)F)C(F)(F)F)cc1 + N=C(N)NC(=N)NCCc1ccccc1 [Phenformin] (partner 250 µM)
The gist of the method: as §1

With COR-L23, the relative viability with RO-3306 + Pictilisib (first compound 0.01 µM) was 0.816; in the assay with RO-3306 + Pictilisib (first compound 0.1 µM), 0.835; with RO-3306 + Pictilisib (first compound 0.3162 µM), 0.77; in the assay with RO-3306 + Pictilisib (first compound 1 µM), 0.67; with RO-3306 + Linsitinib (first compound 0.01 µM), 1.02; with RO-3306 + Linsitinib (first compound 0.1 µM) it was 0.866. In addition, the relative viability was found to be 0.938 with RO-3306 + Linsitinib (first compound 0.3162 µM); 1.06 with RO-3306 + Linsitinib (first compound 1 µM); 0.971 in assay [1] (first compound 0.8 µM); 1.01 in assay [1] (first compound 2.53 µM); 0.888 in assay [1] (first compound 8 µM); 0.85 in assay [2] (first compound 0.8 µM). Also, the relative viability was 0.793 in assay [2] (first compound 2.53 µM); 0.734 in assay [2] (first compound 8 µM); 0.452 in assay [3] (first compound 0.8 µM); 0.451 in assay [3] (first compound 2.53 µM); 0.427 in assay [3] (first compound 8 µM).
Take NCI-H1915: the relative viability with RO-3306 + Pictilisib (first compound 0.01 µM) amounted to 0.919; in the assay with RO-3306 + Pictilisib (first compound 0.03162 µM), 0.827; in the assay with RO-3306 + Pictilisib (first compound 0.1 µM) it was 0.878; with RO-3306 + Pictilisib (first compound 0.3162 µM), 0.917; in the assay with RO-3306 + Pictilisib (first compound 1 µM), 0.615; in the assay with RO-3306 + Linsitinib (first compound 0.01 µM), 1.16. Besides, the relative viability came out at 1.11 with RO-3306 + Linsitinib (first compound 0.03162 µM); 1.08 with RO-3306 + Linsitinib (first compound 0.1 µM); 1.08 in the assay with RO-3306 + Linsitinib (first compound 0.3162 µM); 1.07 with RO-3306 + Linsitinib (first compound 1 µM); 1.1 in assay [1] (first compound 0.8 µM); 1.03 in assay [1] (first compound 2.53 µM). Moreover, the relative viability came out at 1.1 in assay [1] (first compound 8 µM); 0.643 in assay [2] (first compound 0.8 µM); 0.646 in assay [2] (first compound 2.53 µM); 0.649 in assay [2] (first compound 8 µM); 0.373 in assay [3] (first compound 0.8 µM); 0.309 in assay [3] (first compound 2.53 µM). Besides, in assay [3] (first compound 8 µM), the relative viability came to 0.408.
Turning to NCI-H1703, the relative viability was 0.241 in the assay with RO-3306 + Pictilisib (first compound 0.01 µM); 0.221 with RO-3306 + Pictilisib (first compound 0.03162 µM); 0.237 in the assay with RO-3306 + Pictilisib (first compound 0.1 µM); 0.241 in the assay with RO-3306 + Pictilisib (first compound 0.3162 µM); 0.254 with RO-3306 + Pictilisib (first compound 1 µM); 1.04 with RO-3306 + Linsitinib (first compound 0.01 µM). For the same cell line, the relative viability with RO-3306 + Linsitinib (first compound 0.03162 µM) is 0.409; with RO-3306 + Linsitinib (first compound 0.1 µM), 0.598; with RO-3306 + Linsitinib (first compound 0.3162 µM), 0.22; with RO-3306 + Linsitinib (first compound 1 µM) it was 0.681; in assay [1] (first compound 0.8 µM), 0.339; in assay [1] (first compound 2.53 µM) it was 0.23. In assay [1] (first compound 8 µM), the relative viability worked out at 0.29.
For the cell line NCI-H727, the relative viability in the assay with RO-3306 + Pictilisib (first compound 0.01 µM) is 0.355; with RO-3306 + Pictilisib (first compound 0.03162 µM) it was 0.356; with RO-3306 + Pictilisib (first compound 0.1 µM), 0.438; with RO-3306 + Pictilisib (first compound 0.3162 µM), 0.319; with RO-3306 + Pictilisib (first compound 1 µM), 0.41; with RO-3306 + Linsitinib (first compound 0.01 µM), 0.464. The relative viability with RO-3306 + Linsitinib (first compound 0.03162 µM) amounted to 0.221; with RO-3306 + Linsitinib (first compound 0.1 µM), 0.28; with RO-3306 + Linsitinib (first compound 0.3162 µM), 0.277; with RO-3306 + Linsitinib (first compound 1 µM) it was 0.35; in assay [1] (first compound 0.8 µM), 0.83; in assay [1] (first compound 2.53 µM), 0.846. The relative viability in assay [1] (first compound 8 µM) turned out to be 0.867; in assay [2] (first compound 0.8 µM), 0.669; in assay [2] (first compound 2.53 µM), 0.474; in assay [2] (first compound 8 µM) it was 0.631; in assay [3] (first compound 0.8 µM) it was 0.568; in assay [3] (first compound 2.53 µM) it was 0.378. The relative viability in assay [3] (first compound 8 µM) was 0.469.
Take LC-2-ad: the relative viability was determined as 0.43 with RO-3306 + Pictilisib (first compound 0.01 µM); 0.275 in the assay with RO-3306 + Pictilisib (first compound 0.03162 µM); 0.377 with RO-3306 + Pictilisib (first compound 0.1 µM); 0.488 in the assay with RO-3306 + Pictilisib (first compound 0.3162 µM); 0.428 with RO-3306 + Pictilisib (first compound 1 µM); 0.902 with RO-3306 + Linsitinib (first compound 0.01 µM). Besides, the relative viability in the assay with RO-3306 + Linsitinib (first compound 0.03162 µM) was determined as 0.757; with RO-3306 + Linsitinib (first compound 0.1 µM), 0.813; with RO-3306 + Linsitinib (first compound 0.3162 µM) it was 0.833; with RO-3306 + Linsitinib (first compound 1 µM), 0.817; in assay [1] (first compound 0.8 µM) it was 1.06; in assay [1] (first compound 2.53 µM), 0.912. Besides, the relative viability in assay [1] (first compound 8 µM) came out at 0.867; in assay [2] (first compound 0.8 µM), 0.876; in assay [2] (first compound 2.53 µM) it was 0.889; in assay [2] (first compound 8 µM) it was 0.827; in assay [3] (first compound 0.8 µM) it was 0.626; in assay [3] (first compound 2.53 µM), 0.584. Also, in assay [3] (first compound 8 µM), the relative viability is 0.633.
In the case of NCI-H2009, the relative viability in the assay with RO-3306 + Pictilisib (first compound 0.01 µM) came to 0.96; with RO-3306 + Pictilisib (first compound 0.03162 µM), 0.712; with RO-3306 + Pictilisib (first compound 0.1 µM), 0.806; with RO-3306 + Pictilisib (first compound 0.3162 µM), 0.753; in the assay with RO-3306 + Pictilisib (first compound 1 µM) it was 0.636; in the assay with RO-3306 + Linsitinib (first compound 0.01 µM), 1.22. The relative viability with RO-3306 + Linsitinib (first compound 0.03162 µM) worked out at 1.12; with RO-3306 + Linsitinib (first compound 0.1 µM), 1.18; in the assay with RO-3306 + Linsitinib (first compound 0.3162 µM) it was 1.23; in the assay with RO-3306 + Linsitinib (first compound 1 µM), 1.23; in assay [1] (first compound 0.8 µM), 1.26; in assay [1] (first compound 2.53 µM), 1.08. The relative viability in assay [1] (first compound 8 µM) is 0.988; in assay [2] (first compound 0.8 µM), 0.588; in assay [2] (first compound 2.53 µM) it was 0.567; in assay [2] (first compound 8 µM), 0.568; in assay [3] (first compound 0.8 µM), 0.47; in assay [3] (first compound 2.53 µM), 0.439. The relative viability in assay [3] (first compound 8 µM) came to 0.419.
With A-427, the relative viability with RO-3306 + Pictilisib (first compound 0.01 µM) came to 0.707; with RO-3306 + Pictilisib (first compound 0.03162 µM), 0.735; in the assay with RO-3306 + Pictilisib (first compound 0.1 µM), 0.638; in the assay with RO-3306 + Pictilisib (first compound 0.3162 µM) it was 0.781; with RO-3306 + Pictilisib (first compound 1 µM), 0.483; in the assay with RO-3306 + Linsitinib (first compound 0.01 µM) it was 1.14. In addition, the relative viability with RO-3306 + Linsitinib (first compound 0.03162 µM) stood at 1.1; in the assay with RO-3306 + Linsitinib (first compound 0.1 µM) it was 1.07; with RO-3306 + Linsitinib (first compound 0.3162 µM), 1.06; in the assay with RO-3306 + Linsitinib (first compound 1 µM), 1.21; in assay [1] (first compound 0.8 µM), 1.1; in assay [1] (first compound 2.53 µM) it was 0.967. Further, the relative viability in assay [1] (first compound 8 µM) was determined as 1.09; in assay [2] (first compound 0.8 µM), 0.434; in assay [2] (first compound 2.53 µM) it was 0.479; in assay [2] (first compound 8 µM) it was 0.676; in assay [3] (first compound 0.8 µM) it was 0.286; in assay [3] (first compound 2.53 µM) it was 0.254. The relative viability in assay [3] (first compound 8 µM) is 0.326.
As for SK-MES-1, the relative viability with RO-3306 + Pictilisib (first compound 0.01 µM) was 0.324; with RO-3306 + Pictilisib (first compound 0.03162 µM), 0.334; with RO-3306 + Pictilisib (first compound 0.1 µM), 0.353; in the assay with RO-3306 + Pictilisib (first compound 0.3162 µM), 0.413; with RO-3306 + Pictilisib (first compound 1 µM) it was 0.355; with RO-3306 + Linsitinib (first compound 0.01 µM), 1.14. In addition, the relative viability with RO-3306 + Linsitinib (first compound 0.03162 µM) was 0.859; with RO-3306 + Linsitinib (first compound 0.1 µM), 1.16; in the assay with RO-3306 + Linsitinib (first compound 0.3162 µM), 1.16; with RO-3306 + Linsitinib (first compound 1 µM), 1.15; in assay [1] (first compound 0.8 µM), 0.723; in assay [1] (first compound 2.53 µM), 0.728. Moreover, the relative viability in assay [1] (first compound 8 µM) worked out at 0.767; in assay [2] (first compound 0.8 µM), 0.639; in assay [2] (first compound 2.53 µM), 0.647; in assay [2] (first compound 8 µM) it was 0.443; in assay [3] (first compound 0.8 µM) it was 0.779; in assay [3] (first compound 2.53 µM) it was 0.745. For the same cell line, the relative viability in assay [3] (first compound 8 µM) was 0.65.
